{"source": "patent US5719121A", "about": "“Use of balhimycin as production promoter in animals, and production promoter compositions” (Hoechst Aktiengesellschaft, priority 1995, dated 1998)", "test_system": "broilers", "experiment": "Feeding experiment with balhimycin in broilers (floor management, 35 days): growth and feed utilization", "format": "in vivo", "settings": "for Feed Intake, compared to the control value of 100% / Feed Utilization, compared to the control value of 100% / Live weight End, compared to the control value of 100% / Live weight Gain, compared to the control value of 100%: control = 100; for Feed Intake / Feed Utilization kg of FI/kg of LW / Live weight End: group mean", "procedure": "A feeding experiment with balhimycin was carried out in floor management using […] broilers (80 males and 80 females) which were divided into 5 groups:\n1st group: untreated control\n2nd group: balhimycin, 15 mg/kg of feed\n3rd group: balhimycin, 30 mg/kg of feed\n4th group: balhimycin, 45 mg/kg of feed\n5th group: balhimycin, 60 mg/kg of feed\nThe feed had the following composition (Table 1):\nThe animals were kept in boxes of 40 animals each and were given the feed mixtures for 35 days in accordance with their group assignment.\nIn Table 2, the first number in each column directed to weight change, feed intake, and feed utilization, indicates the number average for the broilers in each group. The second number indicates the standard deviation of the data. The third number indicates the percent difference of each group as compared to the control value of 100%.\nDifferent letters (a, b, ab, c) in the gain column denote significant differences between the groups (P<0.05). Values having the same letter or letters indicate that there is no significant difference between the groups."}
{"smiles": "CNC(CC(C)C)C(=O)NC1C(=O)NC(CC(N)=O)C(=O)NC2C(=O)NC3C(=O)NC(C(=O)NC(C(=O)O)c4cc(O)cc(O)c4-c4cc3ccc4O)C(OC3C[C@](C)(N)C(=O)C(C)O3)c3ccc(c(Cl)c3)Oc3cc2cc(c3OC2O[C@H](CO)C(O)[C@H](O)C2O)Oc2ccc(cc2Cl)C1O", "note": "(stereo partly shown) [Balhimycin]", "values": [{"measurement": "Feed Intake, compared to the control value of 100%", "setting": "balhimycin 15 mg/kg of feed", "value": 99.9, "unit": "%"}, {"measurement": "Feed Utilization, compared to the control value of 100%", "setting": "balhimycin 15 mg/kg of feed", "value": 92.0, "unit": "%"}, {"measurement": "Live weight End, compared to the control value of 100%", "setting": "balhimycin 15 mg/kg of feed", "value": 108.1, "unit": "%"}, {"measurement": "Live weight Gain, compared to the control value of 100%", "setting": "balhimycin 15 mg/kg of feed", "value": 108.4, "unit": "%"}, {"measurement": "Feed Intake", "setting": "balhimycin 15 mg/kg of feed", "value": 72.5, "unit": "g/day"}, {"measurement": "Feed Utilization kg of FI/kg of LW", "setting": "balhimycin 15 mg/kg of feed", "value": "1.62 kg of FI/kg of LW"}, {"measurement": "Live weight End", "setting": "balhimycin 15 mg/kg of feed", "value": 1602.0, "unit": "g"}, {"measurement": "Feed Intake, compared to the control value of 100%", "setting": "balhimycin 30 mg/kg of feed", "value": 100.6, "unit": "%"}, {"measurement": "Feed Utilization, compared to the control value of 100%", "setting": "balhimycin 30 mg/kg of feed", "value": 93.8, "unit": "%"}, {"measurement": "Live weight End, compared to the control value of 100%", "setting": "balhimycin 30 mg/kg of feed", "value": 110.7, "unit": "%"}, {"measurement": "Live weight Gain, compared to the control value of 100%", "setting": "balhimycin 30 mg/kg of feed", "value": 110.8, "unit": "%"}, {"measurement": "Feed Intake", "setting": "balhimycin 30 mg/kg of feed", "value": 75.3, "unit": "g/day"}, {"measurement": "Feed Utilization kg of FI/kg of LW", "setting": "balhimycin 30 mg/kg of feed", "value": "1.65 kg of FI/kg of LW"}, {"measurement": "Live weight End", "setting": "balhimycin 30 mg/kg of feed", "value": 1640.0, "unit": "g"}, {"measurement": "Feed Intake, compared to the control value of 100%", "setting": "balhimycin 45 mg/kg of feed", "value": 100.6, "unit": "%"}, {"measurement": "Feed Utilization, compared to the control value of 100%", "setting": "balhimycin 45 mg/kg of feed", "value": 92.0, "unit": "%"}, {"measurement": "Live weight End, compared to the control value of 100%", "setting": "balhimycin 45 mg/kg of feed", "value": 109.1, "unit": "%"}, {"measurement": "Live weight Gain, compared to the control value of 100%", "setting": "balhimycin 45 mg/kg of feed", "value": 109.3, "unit": "%"}, {"measurement": "Feed Intake", "setting": "balhimycin 45 mg/kg of feed", "value": 73.0, "unit": "g/day"}, {"measurement": "Feed Utilization kg of FI/kg of LW", "setting": "balhimycin 45 mg/kg of feed", "value": "1.62 kg of FI/kg of LW"}, {"measurement": "Live weight End", "setting": "balhimycin 45 mg/kg of feed", "value": 1617.0, "unit": "g"}, {"measurement": "Feed Intake, compared to the control value of 100%", "setting": "balhimycin 60 mg/kg of feed", "value": 100.7, "unit": "%"}, {"measurement": "Feed Utilization, compared to the control value of 100%", "setting": "balhimycin 60 mg/kg of feed", "value": 93.2, "unit": "%"}, {"measurement": "Live weight End, compared to the control value of 100%", "setting": "balhimycin 60 mg/kg of feed", "value": 108.0, "unit": "%"}, {"measurement": "Live weight Gain, compared to the control value of 100%", "setting": "balhimycin 60 mg/kg of feed", "value": 108.1, "unit": "%"}, {"measurement": "Feed Intake", "setting": "balhimycin 60 mg/kg of feed", "value": 73.1, "unit": "g/day"}, {"measurement": "Feed Utilization kg of FI/kg of LW", "setting": "balhimycin 60 mg/kg of feed", "value": "1.64 kg of FI/kg of LW"}, {"measurement": "Live weight End", "setting": "balhimycin 60 mg/kg of feed", "value": 1600.0, "unit": "g"}]}
